In article PMC11597478, “Kinin B1- and B2-Receptor Subtypes Contract Isolated Bovine Ciliary Muscle: Their Role in Ocular Lens Function and Intraocular Pressure Reduction” (Pharmaceuticals, 2024):
Read-outs that look alike come from different tables or passages of the source. Square brackets hold non-standard residues; d marks the D form. Peptide text beside a SMILES is read from it. * marks the point of attachment. X1 = COc1ccc(C[C@@H](CN[C@@H](CCCNC(=N)N)C(=O)O)N*)cc1; Hyp = O=C(O)[C@@H]1C[C@@H](O)CN1; 2Thi = N[C@@H](Cc1cccs1)C(=O)O

Key:
cloned B2 receptor [1] = settings: ref [1]; cited from earlier work
human umbilical vein = settings: B2-receptor-mediated contraction; ref [1],[2],[3],[18],[20],[23]; read-out: Functional potency, HUV, HP Site; cited from earlier work
From the text: Table 2 Ability of BK and Des-Arg^9-BK to Contract Various Tissues of Different Species or to Mobilize Intracellular Ca^2+ in human Ocular Cells. | column: HUV

rat uterus strips = settings: B2-receptor-mediated contraction; ref [1],[2],[3],[18],[20],[23]; read-out: Functional potency, RUT, HP Site; cited from earlier work
From the text: Table 2 Ability of BK and Des-Arg^9-BK to Contract Various Tissues of Different Species or to Mobilize Intracellular Ca^2+ in human Ocular Cells. | column: RUT

[2] = system: human trabecular meshwork (hTM) cells; settings: [Ca2+]i mobilization, second value of cell; single B2-receptor subtype; ref [2],[8]; read-out: Functional potency, hTM Cells, HP Site; cited from earlier work
From the text: (§1) Table 2 Ability of BK and Des-Arg^9-BK to Contract Various Tissues of Different Species or to Mobilize Intracellular Ca^2+ in human Ocular Cells. | column: hCM/hTM Cells

[3] = system: human ciliary muscle (hCM) cells; settings: [Ca2+]i mobilization, first value of cell; single B2-receptor subtype; ref [2],[8]; read-out: Functional potency, hCM Cells, HP Site; cited from earlier work
From the text: as §1

cloned B2 receptor [4] = settings: ref [1]; read-out: Ki, cloned B2 receptor (rabbit); cited from earlier work
rat ileum = settings: B1-receptor in rat ileum, contraction; ref [25]; read-out: Functional potency, RI, HP Site; cited from earlier work
From the text: Table 2 Ability of BK and Des-Arg^9-BK to Contract Various Tissues of Different Species or to Mobilize Intracellular Ca^2+ in human Ocular Cells. | column: RI || In the current studies, both BK and Des-Arg^9-BK contracted the BCM in a biphasic fashion, indicating the involvement of both B1 and B2 receptors in the smooth muscle contraction process. Other agonist peptides related to BK also elicited similar profiles of contractility, thereby substantiating the effects of BK and Des-Arg^9-BK in this specific tissue. Furthermore, the role of both kinin receptor subtypes being responsible for contracting BCM in vitro was confirmed by sequentially recording the functional responses of the tissue in the presence of B1- and B2-receptor antagonists in numerous ...

[5] = system: bovine ciliary muscle (BCM) strips; test: tissue or blood; assay type: cell-based; settings: for share of the maximal contraction accounted for by the first high affinity/potency phase: biphasic C-R curve, BCM strips; for Max. Tension Generated During Contraction: freshly isolated BCM strips, Krebs 37 °C, 1 g load, 7–11 concentrations (0.1 nM–10 µM), mean ± SEM, 3–8 experiments
Experimental: The methods utilized in the current studies were adapted from Lograno and Romano [13] and Ohia et al., with some minor modifications. Fresh bovine eyeballs were obtained from a local abattoir (Fisher Ham and Meat Company, Houston, TX, USA) and transported to the laboratory in ice. Whole eyeballs were placed in warm oxygenated Krebs buffer solution for 30 min to ensure equilibration before dissection of the ciliary muscle. Briefly, the anterior segment was dissected out of whole eyeballs after an incision was made at the limbus. The anterior segment containing the cornea, anterior uvea, and lens was then inverted and the lens dislodged with a probe along with the attached vitreous humor. After removal of the vitreous humor and lens, the whole ciliary muscle (comprising both longitudinal and circular portions) was quickly isolated and dissected from the scleral spur and choroid. Muscle strips of 4–5 mm in length were cut and mounted in 25 mL organ baths containing oxygenated Krebs solution at 37 °C using a silk thread linked to an isometric strain gauge under a constant load of 1g tension. The tissues were then allowed to equilibrate for 30 min. Two ciliary muscle strips were prepared from each eyeball and four to eight strips were used for each series of experiments. The composition of the Krebs solution used (mM) was NaCl, 118; KCl, 4.8; CaCl2, 2.5; KH2PO4, 1.2; NaHCO3, 25; MgSO4, 2.0; dextrose, 10 and flurbiprofen, 0.003 (pH 7.4), all purchased from Sigma-Aldrich, St. Louis, MO (USA). […] A robust response was characterized as a single contraction that consistently yielded a tension in the muscle induced by carbachol of 0.15–0.3 gm. […] Tissue strips were then thoroughly rinsed with fresh buffer solution via a series of buffer additions and drainage activities to remove any residual muscarinic agonist, and the preload was readjusted prior to starting the actual study with kininergic ligands. Concentration–response studies employed 7–11 compound concentrations (0.1 nM to 10 µM) and data from multiple experiments were collected.
The contractile responses obtained were expressed as gram tension developed and as percentages of the maximum response of each of the compounds. GraphPad Prism 4.0 Software (San Diego, CA, USA) was then used to construct the concentration–response curves for the kinins and to derive the half-maximal stimulation potencies (EC50) of each phase of the bi-phasic curves and the values tabulated as previously described.

cloned B2 receptor [6] = settings: ref [1]; read-out: Ki, cloned B2 receptor (mouse); cited from earlier work
[7] = system: bovine aortic endothelial cells; settings: ref [21]; cited from earlier work
From the text: Figure 2 Chemical structures of bradykinin and its key analogs and those of the selective B1- and B2-receptor antagonists. The amino acid composition and linkage to form bradykinin and its analogs (linear peptides) are depicted in the upper panel.

[8] = molecular target: kinin B2 receptor (Oryctolagus cuniculus) (UniProt Q28642); settings: cited from earlier work
Chain of UniProt Q28642 (Q28642 whole entry): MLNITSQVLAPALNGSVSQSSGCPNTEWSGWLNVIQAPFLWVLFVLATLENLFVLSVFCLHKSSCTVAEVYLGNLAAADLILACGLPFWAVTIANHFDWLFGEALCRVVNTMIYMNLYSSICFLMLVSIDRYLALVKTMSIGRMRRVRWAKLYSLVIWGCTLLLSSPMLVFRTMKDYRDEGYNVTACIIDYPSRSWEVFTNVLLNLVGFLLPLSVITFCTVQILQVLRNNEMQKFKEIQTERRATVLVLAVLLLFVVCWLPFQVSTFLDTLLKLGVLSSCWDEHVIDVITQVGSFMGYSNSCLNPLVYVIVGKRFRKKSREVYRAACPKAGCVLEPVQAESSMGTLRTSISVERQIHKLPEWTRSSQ

[9] = molecular target: kinin B2 receptor (Mus musculus) (UniProt P32299); settings: cited from earlier work
Chain of UniProt P32299 (P32299 whole entry): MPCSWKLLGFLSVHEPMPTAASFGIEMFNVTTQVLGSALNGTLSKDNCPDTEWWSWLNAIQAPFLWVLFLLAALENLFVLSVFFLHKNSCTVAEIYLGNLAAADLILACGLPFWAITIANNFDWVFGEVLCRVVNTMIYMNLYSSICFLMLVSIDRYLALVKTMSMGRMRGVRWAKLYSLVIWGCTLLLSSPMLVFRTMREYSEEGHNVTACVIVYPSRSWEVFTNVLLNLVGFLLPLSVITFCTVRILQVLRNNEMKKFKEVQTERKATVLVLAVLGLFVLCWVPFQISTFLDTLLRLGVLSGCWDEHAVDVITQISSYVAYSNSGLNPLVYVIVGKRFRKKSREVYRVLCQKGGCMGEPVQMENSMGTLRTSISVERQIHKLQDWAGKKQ

[10] = molecular target: kinin B1 receptor (Homo sapiens) (UniProt P46663); settings: cited from earlier work
Chain of UniProt P46663 (P46663 whole entry): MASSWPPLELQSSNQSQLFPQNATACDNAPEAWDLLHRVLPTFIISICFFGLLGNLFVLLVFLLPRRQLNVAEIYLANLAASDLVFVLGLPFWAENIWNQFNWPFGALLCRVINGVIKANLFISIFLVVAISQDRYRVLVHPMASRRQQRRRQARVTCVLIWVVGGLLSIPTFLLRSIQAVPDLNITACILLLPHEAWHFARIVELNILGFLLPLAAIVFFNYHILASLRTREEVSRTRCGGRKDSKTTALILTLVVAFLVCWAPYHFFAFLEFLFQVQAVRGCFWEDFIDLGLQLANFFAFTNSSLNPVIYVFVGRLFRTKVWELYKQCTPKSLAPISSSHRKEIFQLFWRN

[11] = molecular target: kinin B1 receptor (Oryctolagus cuniculus) (UniProt P48748); settings: cited from earlier work
Chain of UniProt P48748 (P48748 whole entry): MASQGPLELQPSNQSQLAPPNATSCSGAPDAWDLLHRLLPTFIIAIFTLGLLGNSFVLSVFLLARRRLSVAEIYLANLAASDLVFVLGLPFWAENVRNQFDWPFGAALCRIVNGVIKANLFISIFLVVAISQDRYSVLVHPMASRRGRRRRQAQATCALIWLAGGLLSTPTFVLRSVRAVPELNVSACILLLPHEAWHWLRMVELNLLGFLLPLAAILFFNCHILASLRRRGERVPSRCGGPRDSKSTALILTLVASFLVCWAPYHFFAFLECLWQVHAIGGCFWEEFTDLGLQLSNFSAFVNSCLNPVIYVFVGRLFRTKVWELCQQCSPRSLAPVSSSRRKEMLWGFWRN

[12] = molecular target: kinin B2 receptor (Homo sapiens) (UniProt P30411); settings: cited from earlier work
Chain of UniProt P30411 (P30411 whole entry): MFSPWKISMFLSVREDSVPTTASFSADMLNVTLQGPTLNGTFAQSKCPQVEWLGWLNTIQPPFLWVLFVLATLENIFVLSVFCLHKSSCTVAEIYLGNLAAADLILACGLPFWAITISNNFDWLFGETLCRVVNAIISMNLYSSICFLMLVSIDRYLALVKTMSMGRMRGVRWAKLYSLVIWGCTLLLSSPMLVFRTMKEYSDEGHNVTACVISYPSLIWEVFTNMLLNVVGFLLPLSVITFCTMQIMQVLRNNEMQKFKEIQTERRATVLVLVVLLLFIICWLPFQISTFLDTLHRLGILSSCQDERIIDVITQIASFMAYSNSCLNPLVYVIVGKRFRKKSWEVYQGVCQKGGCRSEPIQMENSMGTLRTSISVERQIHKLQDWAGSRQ

[13] = molecular target: kinin B1 receptor (Mus musculus) (UniProt Q61125); settings: cited from earlier work
Chain of UniProt Q61125 (Q61125 whole entry): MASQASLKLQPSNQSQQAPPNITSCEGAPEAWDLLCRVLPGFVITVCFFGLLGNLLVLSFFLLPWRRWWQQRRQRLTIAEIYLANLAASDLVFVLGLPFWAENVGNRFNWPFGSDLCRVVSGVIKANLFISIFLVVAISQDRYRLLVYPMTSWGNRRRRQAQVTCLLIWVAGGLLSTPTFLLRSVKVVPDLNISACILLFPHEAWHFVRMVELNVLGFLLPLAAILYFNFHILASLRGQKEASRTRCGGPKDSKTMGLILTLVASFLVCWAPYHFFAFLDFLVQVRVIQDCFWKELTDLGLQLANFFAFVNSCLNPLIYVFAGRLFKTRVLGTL

[14] = molecular target: kinin B1 receptor (Mus musculus) (UniProt Q61125); settings: cited from earlier work; remark: listed apart in the source

N=C(N)NCCC[C@H](N)C(=O)N1CCC[C@H]1C(=O)N1CCC[C@H]1C(=O)NCC(=O)N[C@@H](Cc1ccccc1)C(=O)N[C@@H](CO)C(=O)N1CCC[C@H]1C(=O)N[C@@H](Cc1ccccc1)C(=O)O [Des-Arg^9-BK, Des-Arg^9-Bradykinin]
Ki (cloned B2 receptor [1]): 8100 nM | EC50 (human umbilical vein): > 1000 nM | EC50 (rat uterus strips): > 1000 nM | EC50 [2]: 3600 nM | EC50 [3]: 4200 nM | Ki (cloned B2 receptor [4]): > 1000 nM | EC50 (rat ileum): 18.6 nM | EC50 [5]: 30 ± 1.9 nM | share of the maximal contraction accounted for by the first high affinity/potency phase [5]: 40–60% | Max. Tension Generated During Contraction [5]: 0.06 ± 0.01 gm tension | Ki (cloned B2 receptor [6]): 6400 nM

N=C(N)NCCC[C@H](NC(=O)[C@H](Cc1ccccc1)NC(=O)[C@@H]1CCCN1C(=O)[C@H](CO)NC(=O)[C@H](Cc1ccccc1)NC(=O)CNC(=O)[C@@H]1C[C@@H](O)CN1C(=O)[C@@H]1CCCN1C(=O)[C@@H](N)CCCNC(=N)N)C(=O)O [Hyp^3-BK, Hyp^3-Bradykinin]
share of the maximal contraction accounted for by the first high affinity/potency phase [5]: 40–60% | Max. Tension Generated During Contraction [5]: 0.04 ± 0.01 gm tension

CN1[C@@H]2CC[C@H]1C[C@@H](OC(=O)C(CO)c1ccccc1)C2 (stereo partly shown) [atropine]
EC50 ([5]; Bos taurus, carbachol C-R curve in the absence and presence of atropine, n = 6, read-out: potency (EC50) from monophasic carbachol concentration-response curve): 1000 ± 70 nM | effect of muscarinic antagonist on carbachol-induced BCM contraction ([5]; increasing concentrations of atropine, n = 6–8): concentration-dependently blocked

CCCC[P+](CCCC)(CCCC)Cc1ccc(NC(=O)[C@H](Cc2ccc3ccccc3c2)NC(=NC2CCCCC2)NC2CCCCC2)cc1.[Cl-] [WIN-64338]
effect on cGMP production induced by Des-Arg^9-BK [7]: block the cGMP-producing effects of Des-Arg^9-BK

Bradykinin (from UniProt P01042)
Ki [8]: 4.5 nM | Ki [9]: 0.48 nM | Ki [10]: 10000 nM | Ki [11]: 5000 nM | Ki [12]: 0.54 nM | Ki [13]: 200 nM

COc1ccc(C[C@@H](CN[C@@H](CCCNC(=N)N)C(=O)O)NC(=O)[C@@H]2CCCN2C(=O)[C@H](CO)NC(=O)[C@H](Cc2cccs2)NC(=O)CNC(=O)[C@@H]2C[C@@H](O)CN2C(=O)[C@@H]2CCCN2C(=O)[C@@H](N)CCCNC(=N)N)cc1 [RMP-7] (H-RP[Hyp]G[2Thi]SP-X1)
EC50 [5]: 3.5 ± 0.5 nM | share of the maximal contraction accounted for by the first high affinity/potency phase [5]: 40–60% | Max. Tension Generated During Contraction [5]: 0.07 ± 0.01 gm tension

CSCC[C@H](N)C(=O)N[C@@H](CCCCN)C(=O)N[C@@H](CCCNC(=N)N)C(=O)N1CCC[C@H]1C(=O)N1CCC[C@H]1C(=O)NCC(=O)N[C@@H](Cc1ccccc1)C(=O)N[C@@H](CO)C(=O)N1CCC[C@H]1C(=O)N[C@@H](Cc1ccccc1)C(=O)N[C@@H](CCCNC(=N)N)C(=O)O [Met-Lys-BK, Met-Lys-Bradykinin]
share of the maximal contraction accounted for by the first high affinity/potency phase [5]: 40–60% | Max. Tension Generated During Contraction [5]: 0.06 ± 0.01 gm tension

C[N+](C)(C)CCOC(N)=O [carbachol]
contraction of BCM by positive control agent ([5]; monophasic concentration-dependent profile, n = 6–8): always contracted the tissue

N=C(N)NCCC[C@H](NC(=O)[C@H](Cc1ccccc1)NC(=O)[C@@H]1CCCN1C(=O)[C@H](CO)NC(=O)[C@H](Cc1ccccc1)NC(=O)CNC(=O)[C@@H]1CCCN1C(=O)[C@@H]1CCCN1C(=O)[C@H](CCCNC(=N)N)NC(=O)[C@@H](N)CCCCN)C(=O)O [Lys-BK, Lys-Bradykinin]
share of the maximal contraction accounted for by the first high affinity/potency phase [5]: 40–60% | Max. Tension Generated During Contraction [5]: 0.06 ± 0.01 gm tension

Des-Arg9-bradykinin (from UniProt P01042)
Ki [14]: 0.7 nM
